Where two headings read alike, the source gives them in different places.
Legend:
Type in all cases: cell-based
[1] = target: TRPML1 (Homo sapiens, UniProt Q9GZU1); test: Fluorescent TRPML1 assay (Fluo4-AM calcium fluorescence in doxycycline-induced HEK-293 Trex cells)
Outline: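 hTRPML1 (mutated for cell-surface expression) in HEK-293 Trex, dox 0.5 ug/mL o/n; Fluo4-AM 1 uM ~60 min, then ~60 min de-esterification, dark; modified Ringer's + 10 mM Ca. Cmpds 20 uM–6 nM final, half-log, n=3. Ex480/Em540; % activity vs ctrls; EC50 by nonlinear regression.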

[2] = target: T1, TRPML2 (Homo sapiens, UniProt Q8IZK6); test: Fluorescent TRPML2 assay (performed as for TRPML1, substituting the TRPML2 subtype)
T1 construct: expressed in transfected cells
T1 sequence (Q8IZK6 1-566): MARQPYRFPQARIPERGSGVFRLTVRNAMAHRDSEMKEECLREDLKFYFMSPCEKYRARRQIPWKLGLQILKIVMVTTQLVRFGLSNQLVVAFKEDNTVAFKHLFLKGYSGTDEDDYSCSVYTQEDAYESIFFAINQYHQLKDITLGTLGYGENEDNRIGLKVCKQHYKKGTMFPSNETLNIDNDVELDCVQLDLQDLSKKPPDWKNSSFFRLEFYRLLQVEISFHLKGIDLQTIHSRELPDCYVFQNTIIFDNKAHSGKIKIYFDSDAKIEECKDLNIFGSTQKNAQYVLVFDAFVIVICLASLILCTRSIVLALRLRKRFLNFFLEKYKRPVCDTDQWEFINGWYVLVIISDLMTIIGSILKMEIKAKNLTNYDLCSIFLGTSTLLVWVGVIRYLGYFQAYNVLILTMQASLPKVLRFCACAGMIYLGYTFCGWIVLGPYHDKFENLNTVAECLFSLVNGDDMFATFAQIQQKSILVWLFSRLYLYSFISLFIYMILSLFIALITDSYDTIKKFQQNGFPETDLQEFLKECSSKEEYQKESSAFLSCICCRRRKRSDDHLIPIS
Outline: (§1)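 Agonist activity is scored as percent of plate controls from Fluo4 fluorescence after dye-loaded, doxycycline-induced HEK-293 Trex cells meet compound in high-calcium (10 mM) Ringer's. Compounds run in half-log dilutions from 20 micromolar final, in triplicate.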

[3] = target: T2, TRPML3 (Homo sapiens, UniProt Q8TDD5); test: Fluorescent TRPML3 assay (performed as for TRPML1, substituting the TRPML3 subtype)
T2 construct: expressed in transfected cells
T2 sequence (Q8TDD5 1-553): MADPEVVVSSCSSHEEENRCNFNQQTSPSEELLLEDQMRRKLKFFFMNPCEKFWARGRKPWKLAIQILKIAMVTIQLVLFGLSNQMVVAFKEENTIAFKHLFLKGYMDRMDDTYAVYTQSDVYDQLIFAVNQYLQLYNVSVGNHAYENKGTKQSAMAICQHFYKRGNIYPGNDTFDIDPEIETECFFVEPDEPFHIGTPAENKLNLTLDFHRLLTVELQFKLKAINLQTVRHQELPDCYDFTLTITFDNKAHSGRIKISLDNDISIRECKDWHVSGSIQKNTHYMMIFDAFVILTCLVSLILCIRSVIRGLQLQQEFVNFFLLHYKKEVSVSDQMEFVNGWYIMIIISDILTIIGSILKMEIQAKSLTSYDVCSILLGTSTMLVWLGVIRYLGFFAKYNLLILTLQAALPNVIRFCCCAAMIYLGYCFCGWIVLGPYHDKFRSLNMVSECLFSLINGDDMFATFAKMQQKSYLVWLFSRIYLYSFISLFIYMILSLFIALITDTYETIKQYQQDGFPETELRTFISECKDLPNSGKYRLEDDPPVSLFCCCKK
Outline: as §1

Sequence of TRPML1 (Q9GZU1 whole entry L15A/L16A/L577A/L578A, form open): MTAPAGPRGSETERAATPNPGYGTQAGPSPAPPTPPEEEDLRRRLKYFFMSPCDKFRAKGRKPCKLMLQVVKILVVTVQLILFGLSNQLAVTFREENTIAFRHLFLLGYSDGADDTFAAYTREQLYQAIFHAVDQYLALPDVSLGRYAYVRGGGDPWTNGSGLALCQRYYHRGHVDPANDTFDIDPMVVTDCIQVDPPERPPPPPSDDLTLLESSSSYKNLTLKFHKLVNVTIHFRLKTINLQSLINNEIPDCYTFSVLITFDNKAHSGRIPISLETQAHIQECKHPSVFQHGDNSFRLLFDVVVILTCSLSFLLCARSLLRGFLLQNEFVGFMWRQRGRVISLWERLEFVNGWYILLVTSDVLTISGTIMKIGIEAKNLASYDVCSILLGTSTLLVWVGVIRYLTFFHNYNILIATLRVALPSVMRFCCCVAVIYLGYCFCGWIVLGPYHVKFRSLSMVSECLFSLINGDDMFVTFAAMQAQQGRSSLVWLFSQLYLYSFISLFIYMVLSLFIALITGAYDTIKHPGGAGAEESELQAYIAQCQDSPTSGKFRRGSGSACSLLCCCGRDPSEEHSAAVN

C[C@H]1CN(C(=O)OC(C)(C)C)CCN1c1ncnc2c1c(N(C)C)cn2-c1cc(C#N)ccn1 [Compound 426, tert-butyl (S)-4-(7-(4-cyanopyridin-2-yl)-5-(dimethylamino)-7H-pyrrolo[2,3-d]pyrimidin-4-yl)-3-methylpiperazine-1-carboxylate]
EC50 ([1]; fluorescent calcium assay): < 100 nM | EC50 ([2]; fluorescent calcium assay): < 100 nM | EC50 ([3]; fluorescent calcium assay): < 100 nM

C[C@@H]1CN(c2ncnc3c2c(-c2ccccc2F)cn3-c2cc(F)ccn2)[C@@H](C)CN1C(=O)OC(C)(C)C [Compound 452, tert-butyl (2R,5S)-4-(5-(2-fluorophenyl)-7-(4-fluoropyridin-2-yl)-7H-pyrrolo[2,3-d]pyrimidin-4-yl)-2,5-dimethylpiperazine-1-carboxylate]
EC50 ([1]; fluorescent calcium assay): < 100 nM | EC50 ([2]; fluorescent calcium assay): 100 to 500 nM | EC50 ([3]; fluorescent calcium assay): < 100 nM

COc1cncc(-n2cc(-c3ccccc3F)c3c(N4C[C@@H](C)N(C(=O)OC(C)(C)C)C[C@@H]4C)ncnc32)c1 [Compound 135, tert-butyl (2R,5S)-4-(5-(2-fluorophenyl)-7-(5-methoxypyridin-3-yl)-7H-pyrrolo[2,3-d]pyrimidin-4-yl)-2,5-dimethylpiperazine-1-carboxylate]
EC50 ([1]; fluorescent calcium assay): < 100 nM | EC50 ([2]; fluorescent calcium assay): 100 to 500 nM | EC50 ([3]; fluorescent calcium assay): < 100 nM

C[C@@H]1CN(c2ncnc3c2c(C2CC2)cn3-c2cc(F)ccc2F)CCN1C(=O)OC(C)(C)C [Compound 206, tert-butyl (R)-4-(5-cyclopropyl-7-(2,5-difluorophenyl)-7H-pyrrolo[2,3-d]pyrimidin-4-yl)-2-methylpiperazine-1-carboxylate]
EC50 ([1]; fluorescent calcium assay): < 100 nM | EC50 ([2]; fluorescent calcium assay): 500 to 2000 nM | EC50 ([3]; fluorescent calcium assay): 100 to 500 nM

C[C@@H]1CN(c2ncnc3c2c(C(C)(C)C)cn3-c2cc(C#N)ncn2)[C@@H](C)CN1C(=O)OC(C)(C)C [Compound 533, tert-butyl (2R,5S)-4-(5-(tert-butyl)-7-(6-cyanopyrimidin-4-yl)-7H-pyrrolo[2,3-d]pyrimidin-4-yl)-2,5-dimethylpiperazine-1-carboxylate]
EC50 [1]: < 100 nM | EC50 [2]: < 100 nM | EC50 [3]: < 100 nM

C[C@@H]1CN(c2ncnc3c2c(-c2ccccc2F)cn3-c2cc(C(F)(F)F)ccn2)[C@@H](C)CN1C(=O)OC1(C)CC1 [Compound 652, 1-methylcyclopropyl (2R,5S)-4-(5-(2-fluorophenyl)-7-(4-(trifluoromethyl)pyridin-2-yl)-7H-pyrrolo[2,3-d]pyrimidin-4-yl)-2,5-dimethylpiperazine-1-carboxylate]
EC50 [1]: < 100 nM | EC50 [2]: 100 to 500 nM | EC50 [3]: < 100 nM

C[C@@H]1CN(c2ncnc3c2c(C(F)(F)F)cn3-c2ccccn2)[C@@H](C)CN1C(=O)OC(C)(C)C [Compound 663, tert-butyl (2R,5S)-2,5-dimethyl-4-(7-(pyridin-2-yl)-5-(trifluoromethyl)-7H-pyrrolo[2,3-d]pyrimidin-4-yl)piperazine-1-carboxylate]
EC50 [1]: 100 to 500 nM | EC50 [2]: > 2000 nM | EC50 [3]: 100 to 500 nM

C[C@@H]1CN(c2ncnc3c2c(C(F)(F)F)cn3-c2cc(C#N)ccn2)[C@@H](C)CN1C(=O)OC1CCC1 [Compound 516, cyclobutyl (2R,5S)-4-(7-(4-cyanopyridin-2-yl)-5-(trifluoromethyl)-7H-pyrrolo[2,3-d]pyrimidin-4-yl)-2,5-dimethylpiperazine-1-carboxylate]
EC50 [1]: < 100 nM | EC50 [2]: < 100 nM | EC50 [3]: < 100 nM

CC(C)(C)OC(=O)N1CCN(c2ncnc3c2c(C(F)(F)F)cn3-c2cc(C#N)ccn2)CC1 [Compound 708, tert-butyl 4-(7-(4-cyanopyridin-2-yl)-5-(trifluoromethyl)-7H-pyrrolo[2,3-d]pyrimidin-4-yl)piperazine-1-carboxylate]
EC50 [1]: 500 to 2000 nM | EC50 [2]: 500 to 2000 nM | EC50 [3]: 500 to 2000 nM

CC(C)c1cn(-c2cc(C(F)(F)F)ccn2)c2ncnc(N3C[C@@H](C)N(C(=O)OC(C)(C)C)C[C@@H]3C)c12 [Compound 699, tert-butyl (2R,5S)-4-(5-isopropyl-7-(4-(trifluoromethyl)pyridin-2-yl)-7H-pyrrolo[2,3-d]pyrimidin-4-yl)-2,5-dimethylpiperazine-1-carboxylate]
EC50 [1]: < 100 nM | EC50 [2]: 100 to 500 nM | EC50 [3]: < 100 nM

C[C@@H]1CN(c2ncnc3c2c(C2CC2)cn3-c2cccc(Cl)c2)[C@@H](C)CN1C(=O)OC(C)(C)C [Compound 130, tert-butyl (2R,5S)-4-(7-(3-chlorophenyl)-5-cyclopropyl-7H-pyrrolo[2,3-d]pyrimidin-4-yl)-2,5-dimethylpiperazine-1-carboxylate]
EC50 ([1]; fluorescent calcium assay): < 100 nM | EC50 ([2]; fluorescent calcium assay): 100 to 500 nM | EC50 ([3]; fluorescent calcium assay): < 100 nM

Cc1nccnc1-c1cn(-c2cc(F)cc(F)c2)c2ncnc(N3CCN(C(=O)OC(C)C)C[C@@H]3C)c12 [Compound 249, Isopropyl (S)-4-(7-(3,5-difluorophenyl)-5-(3-methylpyrazin-2-yl)-7H-pyrrolo[2,3-d]pyrimidin-4-yl)-3-methylpiperazine-1-carboxylate]
EC50 ([1]; fluorescent calcium assay): > 2000 nM | EC50 ([2]; fluorescent calcium assay): > 2000 nM | EC50 ([3]; fluorescent calcium assay): 500 to 2000 nM

C[C@@H]1CN(c2ncnc3c2c(C(F)(F)F)cn3-c2cccc(Cl)c2)[C@@H](C)CN1C(=O)OC(C)(C)C [Compound 491, tert-Butyl (2R,5S)-4-(7-(3-chlorophenyl)-5-(trifluoromethyl)-7H-pyrrolo[2,3-d]pyrimidin-4-yl)-2,5-dimethylpiperazine-1-carboxylate]
EC50 ([1]; fluorescent calcium assay): < 100 nM | EC50 ([2]; fluorescent calcium assay): 100 to 500 nM | EC50 ([3]; fluorescent calcium assay): < 100 nM

Cc1cn(-c2cccc(C#N)c2)c2ncnc(N3CCN(C(=O)OC(C)(C)C)C[C@@H]3C)c12 [Compound 686, tert-butyl (S)-4-(7-(3-cyanophenyl)-5-methyl-7H-pyrrolo[2,3-d]pyrimidin-4-yl)-3-methylpiperazine-1-carboxylate]
EC50 [1]: < 100 nM | EC50 [2]: < 100 nM | EC50 [3]: < 100 nM

CC(C)(C)OC(=O)N1CCN(c2ncnc3c2c(-c2ccccn2)cn3-c2cccc(Cl)c2)CC1 [Compound 101, tert-butyl 4-(7-(3-chlorophenyl)-5-(pyridin-2-yl)-7H-pyrrolo[2,3-d]pyrimidin-4-yl)piperazine-1-carboxylate]
EC50 ([1]; fluorescent calcium assay): 100 to 500 nM | EC50 ([2]; fluorescent calcium assay): 100 to 500 nM | EC50 ([3]; fluorescent calcium assay): < 100 nM

Cc1nccnc1-c1cn(-c2cccc(OC(F)(F)F)c2)c2ncnc(N3CCN(C(=O)OC(C)(C)C)C[C@@H]3C)c12 [Compound 304, tert-butyl (S)-3-methyl-4-(5-(3-methylpyrazin-2-yl)-7-(3-(trifluoromethoxy)phenyl)-7H-pyrrolo[2,3-d]pyrimidin-4-yl)piperazine-1-carboxylate]
EC50 ([1]; fluorescent calcium assay): 500 to 2000 nM | EC50 ([2]; fluorescent calcium assay): 500 to 2000 nM | EC50 ([3]; fluorescent calcium assay): 100 to 500 nM

C[C@@H]1CN(c2ncnc3c2c(C2CC2)cn3-c2cc(F)cc(F)c2)CCN1C(=O)OC(C)(C)C [Compound 108, tert-butyl (R)-4-(5-cyclopropyl-7-(3,5-difluorophenyl)-7H-pyrrolo[2,3-d]pyrimidin-4-yl)-2-methylpiperazine-1-carboxylate]
EC50 ([1]; fluorescent calcium assay): < 100 nM | EC50 ([2]; fluorescent calcium assay): 100 to 500 nM | EC50 ([3]; fluorescent calcium assay): < 100 nM

C[C@H]1CN(C(=O)OC(C)(C)C)CCN1c1ncnc2c1c(C(F)(F)F)cn2-c1cccc(Cl)c1 [Compound 494, tert-butyl (S)-4-(7-(3-chlorophenyl)-5-(trifluoromethyl)-7H-pyrrolo[2,3-d]pyrimidin-4-yl)-3-methylpiperazine-1-carboxylate]
EC50 [1]: < 100 nM | EC50 [2]: 100 to 500 nM | EC50 [3]: < 100 nM

C[C@H]1CN(C(=O)OC(C)(C)C)CCN1c1ncnc2c1c(C1CC1)cn2-c1ccc(C#N)n1C [Compound 456, tert-butyl (S)-4-(7-(5-cyano-1-methyl-1H-pyrrol-2-yl)-5-cyclopropyl-7H-pyrrolo[2,3-d]pyrimidin-4-yl)-3-methylpiperazine-1-carboxylate]
EC50 ([1]; fluorescent calcium assay): 500 to 2000 nM | EC50 ([2]; fluorescent calcium assay): 500 to 2000 nM | EC50 ([3]; fluorescent calcium assay): 100 to 500 nM

Cc1cncc(-n2cc(-c3cccnc3)c3c(N4CCN(C(=O)OC(C)(C)C)C[C@@H]4C)ncnc32)c1 [Compound 177, tert-butyl (S)-3-methyl-4-(7-(5-methylpyridin-3-yl)-5-(pyridin-3-yl)-7H-pyrrolo[2,3-d]pyrimidin-4-yl)piperazine-1-carboxylate]
EC50 ([1]; fluorescent calcium assay): 500 to 2000 nM | EC50 ([2]; fluorescent calcium assay): > 2000 nM | EC50 ([3]; fluorescent calcium assay): 500 to 2000 nM
